What all share (assay type): cell-based
The test system of assay [1] is methicillin-resistant Staphylococcus aureus MRSA 18-222. Briefly: MIC by microbroth dilution, MRSA 18-222. The settings on record: for MIC: Staphylococcus aureus, read-out: Minimum bacteriostatic concentration (MIC). As for the experimental part:
(§1) The minimal inhibitory concentration (MIC) of the compounds was determined by a microbroth dilution method with gentamicin, cefazolin sodium and ceftriaxone sodium as positive controls.
(§2) The experimental strains included methicillin-resistant Gram-positive bacteria: methicillin-resistant Staphylococcus aureus MRSA 18-222, 18-575; multiple drug-resistant Gram-negative bacteria: […], multidrug-resistant Pseudomonas aeruginosa MDR-PA 18-174,18-202, carbapenem-resistant Acinetobacter baumannii CR-AB 18-183,18-560. All the experimental strains were donated by Huashan Hospital affiliated to Fudan University (Institute of antibiotics, Fudan University) and used after routine identification.
(§3) Preparation of Test Strains:
(§4) Preparation of MHB medium: 20.0 g MHB medium was added to 1 L distilled water, boiled until completely dissolved, packed in conical bottles and sterilized at 121° C. for 15 min.
(§5) The experimental strain was cultured to the logarithmic growth phase: under aseptic condition, the experimental strain was inoculated into 100 mL MHB medium and incubated in a constant temperature and humidity incubator at 37° C. for 20-22 hours.
(§6) Preparation of storage solution: weigh the sample to be tested, dissolve it with 1% DMSO solution, prepare a storage solution with a concentration of 2560 μg/mL, weigh a positive reference substance, dissolve it with aseptic distilled water, and configure a storage solution with a concentration of 2560 μg/mL.
(§7) Preparation of bacterial suspension: under aseptic condition, the experimental strains cultured to logarithmic growth phase were adjusted to 0.5 MCF turbidity standard with MHB medium and diluted according to 1:10, and the bacterial suspension with concentration of 10^6 CFU/mL was prepared for standby.
(§8) Stock solution dilution and inoculation of experimental strains: under aseptic conditions, dilute the stock solution to a solution of 256 μg/mL. Take a sterile 96-well plate, add 100 μL of MHB medium to each well except for the first and second wells; add 100 μL of positive control solution to the first well, and add 100 μL of compound sample solution to the second and third wells; Mix the sample solution in the 3 wells with the medium, and then pipet 100 μL to the 4th well, and then pipet 100 μL to the 5th well after mixing, and then dilute to the 9th well in a series of times, and draw 100 μL from the 9th well and discard, the 10th well is a growth control without drugs; then, add 100 μL of the above-prepared bacterial suspension to each well to make the final bacterial concentration of each well 5×10^5 CFU/mL; so far, the positive control concentration is 128 μg/mL, the concentration of the sample solution is 128, 64, 32, 16, 8, 4, 2, 1 μg/mL.
(§9) Incubation: Cover the 96-well plate inoculated with the experimental strains, and incubate in a constant temperature and humidity box at 37° C. for 20-22 hours.
In general terms: Dilution methods test growth across graded concentrations, often in twofold steps.

Assay [2] concerns methicillin-resistant Staphylococcus aureus MRSA 18-575. Put plainly: MIC by microbroth dilution, MRSA 18-575. As to the method: as §1, §2, §3, §4, §5, §6, §7, §8, §9
(§10) In FIGS. 1-2, the ten wells represent ten groups, from left to right, positive, 128 μg/mL, 64 μg/mL, 32 μg/mL, 16 μg/mL, 8 μg/mL, 4 μg/mL, 2 μg/mL, 1 μg/mL, Negative.

Assay [3] concerns vancomycin-resistant enterococci VRE 18-80. Put plainly: MIC by microbroth dilution, VRE 18-80. The settings on record: for MIC: Enterococcus, read-out: Minimum bacteriostatic concentration (MIC). As for the experimental part:
as §1, §2, §3, §4, §5, §6, §7, §8, §9

The test system of assay [4] is vancomycin-resistant enterococci VRE 18-94. Put plainly: MIC by microbroth dilution, VRE 18-94. The settings on record: for MIC: Enterococcus, read-out: Minimum bacteriostatic concentration (MIC). As to the method: as §1, §2, §3, §4, §5, §6, §7, §8, §9
Assay [5] relates to multidrug-resistant Pseudomonas aeruginosa MDR-PA 18-174. Put plainly: MIC by microbroth dilution, MDR-PA 18-174. The settings on record: for MIC: Pseudomonas aeruginosa, read-out: Minimum bacteriostatic concentration (MIC). As to the method: as §1, §2, §3, §4, §5, §6, §7, §8, §9
Assay [6] concerns multidrug-resistant Pseudomonas aeruginosa MDR-PA 18-202. Briefly: MIC by microbroth dilution, MDR-PA 18-202. As for the experimental part:
as §1, §2, §3, §4, §5, §6, §7, §8, §9, §10

Assay [7] relates to carbapenem-resistant Acinetobacter baumannii CR-AB 18-183. Put plainly: MIC by microbroth dilution, CR-AB 18-183. The settings on record: for MIC: Acinetobacter baumannii, read-out: Minimum bacteriostatic concentration (MIC). As to the method:
as §1, §2, §3, §4, §5, §6, §7, §8, §9

In assay [8] the test system is carbapenem-resistant Acinetobacter baumannii CR-AB 18-560. Put plainly: MIC by microbroth dilution, CR-AB 18-560. Conditions: for MIC: Acinetobacter baumannii, read-out: Minimum bacteriostatic concentration (MIC). As for the experimental part: as §1, §2, §3, §4, §5, §6, §7, §8, §9
Another assay concerns drug-resistant bacteria. Put plainly: Antibacterial activity test, summary over all experimental strains. The settings on record: text summary of FIG. 1-2 and Table 1. As to the method: as §1, §2, §3, §4
The experimental strain was cultured to the logarithmic growth phase: under aseptic condition, the experimental strain was inoculated into 100 mL MHB medium and incubated in a constant temperature and humidity incubator at 37° C. for 20-22 hours. […]

[9] abbreviates: strain MRSA 18-222, 37° C., 20-22 hours.
[10] abbreviates: Staphylococcus aureus, strain MRSA 18-575, 37° C., 20-22 hours, read-out: Minimum bacteriostatic concentration (MIC).
[11] abbreviates: strain VRE 18-80, 37° C., 20-22 hours.
[12] abbreviates: strain VRE 18-94, 37° C., 20-22 hours.
The mark [13] stands for this setting: strain MDR-PA 18-174, 37° C., 20-22 hours.
Setting [14] is: Pseudomonas aeruginosa, strain MDR-PA 18-202, 37° C., 20-22 hours, read-out: Minimum bacteriostatic concentration (MIC).
[15] abbreviates: strain CR-AB 18-183, 37° C., 20-22 hours.
Setting [16] is: strain CR-AB 18-560, 37° C., 20-22 hours.

≈ marks a conversion by molar mass, not a printed value. Read-outs that look alike come from different tables or passages of the source. A value given as a limit tells only on which side of the number the result lay.

Consider `COc1cc(C)c(/C=C/C(C)=C/C=C/C(C)=C/C(=O)O)c(C)c1C` [Acitretin], for which the MIC is more than 128 µg/mL in [1] (MRSA); more than 128 µg/mL in assay [2] (Staphylococcus aureus, MRSA, read-out: Minimum bacteriostatic concentration (MIC)); more than 128 µg/mL in assay [3] (VRE); more than 128 µg/mL in [4] (VRE); more than 128 µg/mL in assay [5]; more than 128 µg/mL in [6] (Pseudomonas aeruginosa, read-out: Minimum bacteriostatic concentration (MIC)). The MIC in assay [7] and in assay [8] was more than 128 µg/mL throughout. In the assay on drug-resistant bacteria, the “inhibitory effect on drug-resistant bacteria” value is reported as “no inhibitory effect”.

Regarding `Cc1nnc(SCC2=C(C(=O)O)N3C(=O)[C@@H](NC(=O)Cn4cnnn4)[C@H]3SC2)s1` [Cefazolin sodium], the MIC was more than 128 µg/mL in assay [1] (setting [9]); more than 128 µg/mL in [2] (setting [10]); 32 µg/mL in assay [3] (setting [11]); more than 128 µg/mL in [4] (setting [12]); 8 µg/mL in [5] (setting [13]); 128 µg/mL in assay [6] (setting [14]). The MIC in assay [7] (setting [15]) and in assay [8] (setting [16]) was more than 128 µg/mL each time.

Turning to `CO/N=C(\C(=O)N[C@@H]1C(=O)N2C(C(=O)O)=C(CSc3nc(=O)c(=O)[nH]n3C)CS[C@H]12)c1csc(N)n1` [Ceftriaxone sodium], the MIC in assay [1] (setting [9]) was more than 128 µg/mL; in [2] (setting [10]) it was more than 128 µg/mL; in assay [3] (setting [11]) it was 8 µg/mL; in assay [4] (setting [12]), more than 128 µg/mL; in assay [5] (setting [13]), 128 µg/mL; in [6] (setting [14]), 16 µg/mL. For the same compound, the MIC in [7] (setting [15]) and in [8] (setting [16]) was more than 128 µg/mL throughout.

`C=C[C@]1(C)C[C@@H](OC(=O)COC(=O)/C=C(C)/C=C/C=C(C)/C=C/c2c(C)cc(OC)c(C)c2C)[C@]2(C)CC[C@@H](C)C3(CCC(=O)[C@H]32)[C@@H](C)[C@@H]1O` [Pleuromulin acitretinester, (2E,4E,6E,8E)-2-(((4R,5S,6S,8R,9R,9aR,12R)-5-hydroxy-4,6,9,12-tetramethyl-1-oxo-6-vinyldecahydro-3a,9-propanocyclopenta[8]annulen-8-yl)oxy)-2-oxoethyl 9-(4-methoxy-2,3,6-trimethylphenyl)-3,7-dimethylnona-2,4,6,8-tetraenoate]: the MIC is more than 128 µg/mL in assay [1] (setting [9]); 64 µg/mL (≈ 93.2 µM) in [2] (setting [10]); 64 µg/mL (≈ 93.2 µM) in assay [2] (multi-drug resistant Staphylococcus aureus MRSA, strain not named, read-out: MIC); more than 128 µg/mL in assay [3] (setting [11]); more than 128 µg/mL in assay [4] (setting [12]); more than 128 µg/mL in assay [5] (setting [13]). Also, the MIC in assay [6] (setting [14]) was 128 µg/mL (≈ 186 µM); in assay [6] (multi-drug resistant Pseudomonas aeruginosa MDR-PA, strain not named, read-out: MIC), 128 µg/mL (≈ 186 µM); in assay [7] (setting [15]), more than 128 µg/mL; in assay [8] (setting [16]) it was more than 128 µg/mL.

Turning to `C=C[C@]1(C)C[C@@H](OC(=O)CO)[C@]2(C)[C@H](C)CC[C@]3(CCC(=O)[C@H]32)[C@@H](C)[C@@H]1O` [Pleuromulin], the MIC in [1] (setting [9]), in [2] (setting [10]), in assay [3] (setting [11]), in assay [4] (setting [12]), in assay [5] (setting [13]) and in [6] (setting [14]) was more than 128 µg/mL in each case. Also, the MIC in assay [7] (setting [15]) and in assay [8] (setting [16]) was more than 128 µg/mL throughout. Besides, in the assay on drug-resistant bacteria, the “inhibitory effect on drug-resistant bacteria” value is given as “no inhibitory effect”.

For Gentamicin, the “Minimum bacteriostatic concentration (MIC)” value in assay [1] (setting [9]) is 128 µg/mL; in [2] (strain MRSA 18-575, 37° C., 20-22 hours), 2 µg/mL; in assay [3] (setting [11]) it was 0.0625 µg/mL; in assay [4] (setting [12]), more than 128 µg/mL; in [5] (setting [13]), 0.0625 µg/mL; in assay [6] (strain MDR-PA 18-202, 37° C., 20-22 hours), 0.0625 µg/mL. The “Minimum bacteriostatic concentration (MIC)” value in assay [7] (setting [15]) and in assay [8] (setting [16]) was more than 128 µg/mL in each case.

Source of the values: patent publication US11155514B1, “Pleuromulin acitretin ester with antibacterial activity and a method of preparing the same” (SHAANXI UNIVERSITY OF SCIENCE AND TECHNOLOGY, priority 2020, dated 2021).
